pIC50: −log10 of the molar value.
Legend:
[1] = test system: DU-145; assay: Cytotoxicity against human DU145 cells after 48 hrs by SRB assay; format: functional, cell-based; settings: DU-145, 48 h
[2] = test system: HL-60; assay: Cytotoxicity against human HL60 cells after 48 hrs by SRB assay; format: functional, cell-based; settings: HL-60, 48 h
[3] = test system: DU-145; assay: Cytotoxicity against human DU145 cells at 50 uM after 48 hrs by SRB assay; format: functional; settings: DU-145, 48 h, read-out: GI
[4] = test system: HEp-2; assay: Cytotoxicity against human Hep2 cells at 50 uM after 48 hrs by SRB assay; format: functional; settings: HEp-2, 48 h, read-out: GI
[5] = test system: HL-60; assay: Cytotoxicity against human HL60 cells at 10 uM after 48 hrs by SRB assay; format: functional; settings: HL-60, 48 h, read-out: GI
[6] = test system: A549; assay: Cytotoxicity against human A549 cells at 10 uM after 48 hrs by SRB assay; format: functional; settings: A549, 48 h, read-out: GI
[7] = test system: A549; assay: Cytotoxicity against human A549 cells at 30 uM after 48 hrs by SRB assay; format: functional; settings: A549, 48 h, read-out: GI
[8] = test system: HCT-15; assay: Cytotoxicity against human HCT15 cells at 50 uM after 48 hrs by SRB assay; format: functional; settings: HCT-15, 48 h, read-out: GI
[9] = test system: PC-3; assay: Cytotoxicity against human PC3 cells at 50 uM after 48 hrs by SRB assay; format: functional; settings: PC-3, 48 h, read-out: GI
[10] = test system: THP-1; assay: Cytotoxicity against human THP1 cells at 30 uM after 48 hrs by SRB assay; format: functional; settings: THP-1, 48 h, read-out: GI
[11] = test system: HCT-15; assay: Cytotoxicity against human HCT15 cells after 48 hrs by SRB assay; format: functional, cell-based; settings: HCT-15, 48 h
[12] = test system: SF-295; assay: Cytotoxicity against human SF295 cells at 50 uM after 48 hrs by SRB assay; format: functional; settings: SF-295, 48 h, read-out: GI
[13] = test system: A549; assay: Cytotoxicity against human A549 cells after 48 hrs by SRB assay; format: functional, cell-based; settings: A549, 48 h
[14] = test system: SF-295; assay: Cytotoxicity against human SF295 cells at 30 uM after 48 hrs by SRB assay; format: functional; settings: SF-295, 48 h, read-out: GI
[15] = test system: PC-3; assay: Cytotoxicity against human PC3 cells after 48 hrs by SRB assay; format: functional, cell-based; settings: PC-3, 48 h
[16] = test system: HCT-15; assay: Cytotoxicity against human HCT15 cells at 10 uM after 48 hrs by SRB assay; format: functional; settings: HCT-15, 48 h, read-out: GI
[17] = test system: PC-3; assay: Cytotoxicity against human PC3 cells at 10 uM after 48 hrs by SRB assay; format: functional; settings: PC-3, 48 h, read-out: GI
[18] = test system: THP-1; assay: Cytotoxicity against human THP1 cells after 48 hrs by SRB assay; format: functional, cell-based; settings: THP-1, 48 h
[19] = test system: A549; assay: Cytotoxicity against human A549 cells at 50 uM after 48 hrs by SRB assay; format: functional; settings: A549, 48 h, read-out: GI
[20] = test system: THP-1; assay: Cytotoxicity against human THP1 cells at 10 uM after 48 hrs by SRB assay; format: functional; settings: THP-1, 48 h, read-out: GI
[21] = test system: SF-295; assay: Cytotoxicity against human SF295 cells after 48 hrs by SRB assay; format: functional, cell-based; settings: SF-295, 48 h
[22] = test system: HEp-2; assay: Cytotoxicity against human Hep2 cells at 10 uM after 48 hrs by SRB assay; format: functional; settings: HEp-2, 48 h, read-out: GI
[23] = test system: MCF7; assay: Cytotoxicity against human MCF7 cells at 50 uM after 48 hrs by SRB assay; format: functional; settings: MCF7, 48 h, read-out: GI
[24] = test system: SF-295; assay: Cytotoxicity against human SF295 cells at 10 uM after 48 hrs by SRB assay; format: functional; settings: SF-295, 48 h, read-out: GI
[25] = test system: HEp-2; assay: Cytotoxicity against human Hep2 cells after 48 hrs by SRB assay; format: functional, cell-based; settings: HEp-2, 48 h
[26] = test system: HL-60; assay: Cytotoxicity against human HL60 cells at 50 uM after 48 hrs by SRB assay; format: functional; settings: HL-60, 48 h, read-out: GI
[27] = test system: THP-1; assay: Cytotoxicity against human THP1 cells at 50 uM after 48 hrs by SRB assay; format: functional; settings: THP-1, 48 h, read-out: GI
[28] = test system: HL-60; assay: Cytotoxicity against human HL60 cells at 30 uM after 48 hrs by SRB assay; format: functional; settings: HL-60, 48 h, read-out: GI
[29] = test system: MCF7; assay: Cytotoxicity against human MCF7 cells at 10 uM after 48 hrs by SRB assay; format: functional; settings: MCF7, 48 h, read-out: GI
[30] = test system: MCF7; assay: Cytotoxicity against human MCF7 cells at 30 uM after 48 hrs by SRB assay; format: functional; settings: MCF7, 48 h, read-out: GI
[31] = test system: HEp-2; assay: Cytotoxicity against human Hep2 cells at 30 uM after 48 hrs by SRB assay; format: functional; settings: HEp-2, 48 h, read-out: GI
[32] = test system: DU-145; assay: Cytotoxicity against human DU145 cells at 30 uM after 48 hrs by SRB assay; format: functional; settings: DU-145, 48 h, read-out: GI
[33] = test system: DU-145; assay: Cytotoxicity against human DU145 cells at 10 uM after 48 hrs by SRB assay; format: functional; settings: DU-145, 48 h, read-out: GI
[34] = test system: HCT-15; assay: Cytotoxicity against human HCT15 cells at 30 uM after 48 hrs by SRB assay; format: functional; settings: HCT-15, 48 h, read-out: GI
[35] = test system: PC-3; assay: Cytotoxicity against human PC3 cells at 30 uM after 48 hrs by SRB assay; format: functional; settings: PC-3, 48 h, read-out: GI
[36] = test system: MCF7; assay: Cytotoxicity against human MCF7 cells after 48 hrs by SRB assay; format: functional, cell-based; settings: MCF7, 48 h

Row | Structure (SMILES) | pIC50 [1] | pIC50 [2] | inhibition of growth at 50 µM [3] [%] | inhibition of growth at 50 µM [4] [%] | inhibition of growth at 10 µM [5] [%] | inhibition of growth at 10 µM [6] [%] | inhibition of growth at 30 µM [7] [%] | inhibition of growth at 50 µM [8] [%] | inhibition of growth at 50 µM [9] [%] | inhibition of growth at 30 µM [10] [%] | pIC50 [11] | inhibition of growth at 50 µM [12] [%] | pIC50 [13] | inhibition of growth at 30 µM [14] [%] | pIC50 [15] | inhibition of growth at 10 µM [16] [%] | inhibition of growth at 10 µM [17] [%] | pIC50 [18] | inhibition of growth at 50 µM [19] [%] | inhibition of growth at 10 µM [20] [%] | further results
1 | C=C(C)[C@@H]1CC[C@]2(C(=O)O)CC[C@]3(C)[C@H](CC[C@@H]4[C@@]5(C)CC[C@H](OCc6cn(C7O[C@H](COC(C)=O)[C@H](OC(C)=O)[C@H](OC(C)=O)[C@H]7OC(C)=O)nn6)C(C)(C)[C@@H]5CC[C@]43C)[C@@H]12 (stereo partly drawn) | < 4.30 | 5.26 | 36 | 58 | 62 | 6 | 10 | 63 | 40 | 61 | 4.55 | 39 | < 4.30 | 20 | < 4.30 | 39 | 5 | 4.30 | 37 | 50 | pIC50 [21]: < 4.30; inhibition of growth at 10 µM [22]: 25%; inhibition of growth at 50 µM [23]: 52%; inhibition of growth at 10 µM [24]: 8%; pIC50 [25]: 4.40; inhibition of growth at 50 µM [26]: 74%; inhibition of growth at 50 µM [27]: 72%; inhibition of growth at 30 µM [28]: 66%; inhibition of growth at 10 µM [29]: 35%; inhibition of growth at 30 µM [30]: 44%; inhibition of growth at 30 µM [31]: 41%; inhibition of growth at 30 µM [32]: 20%; inhibition of growth at 10 µM [33]: 8%; inhibition of growth at 30 µM [34]: 51%; inhibition of growth at 30 µM [35]: 32%; pIC50 [36]: 4.35
2 | C=C(C)[C@@H]1CC[C@]2(C(=O)O)CC[C@]3(C)[C@H](CC[C@@H]4[C@@]5(C)CC[C@H](OCc6cn(-c7cc(I)ccc7C)nn6)C(C)(C)[C@@H]5CC[C@]43C)[C@@H]12 | 4.41 | 4.74 | 65 | 25 | 40 | 43 | 53 | 34 | 4 | 56 | < 4.30 | 35 | 4.64 | 20 | < 4.30 | 9 | 5 | 4.66 | 67 | 38 | pIC50 [21]: < 4.30; inhibition of growth at 10 µM [22]: 7%; inhibition of growth at 50 µM [23]: 74%; inhibition of growth at 10 µM [24]: 8%; pIC50 [25]: < 4.30; inhibition of growth at 50 µM [26]: 97%; inhibition of growth at 50 µM [27]: 96%; inhibition of growth at 30 µM [28]: 60%; inhibition of growth at 10 µM [29]: 30%; inhibition of growth at 30 µM [30]: 54%; inhibition of growth at 30 µM [31]: 14%; inhibition of growth at 30 µM [32]: 41%; inhibition of growth at 10 µM [33]: 24%; inhibition of growth at 30 µM [34]: 25%; inhibition of growth at 30 µM [35]: 22%; pIC50 [36]: 4.57
3 | C=C(C)[C@@H]1CC[C@]2(C(=O)O)CC[C@]3(C)[C@H](CC[C@@H]4[C@@]5(C)CC[C@H](OCc6cn(-c7ccc8c(c7)OCO8)nn6)C(C)(C)[C@@H]5CC[C@]43C)[C@@H]12 | 4.52 | 4.52 | 91 | 67 | 41 | 22 | 40 | 50 | 61 | 46 | 4.30 | 65 | < 4.30 | 55 | 4.37 | 22 | 2 | 4.47 | 40 | 33 | pIC50 [21]: 4.74; inhibition of growth at 10 µM [22]: 9%; inhibition of growth at 50 µM [23]: 82%; inhibition of growth at 10 µM [24]: 36%; pIC50 [25]: 4.59; inhibition of growth at 50 µM [26]: 61%; inhibition of growth at 50 µM [27]: 52%; inhibition of growth at 30 µM [28]: 50%; inhibition of growth at 10 µM [29]: 47%; inhibition of growth at 30 µM [30]: 68%; inhibition of growth at 30 µM [31]: 56%; inhibition of growth at 30 µM [32]: 50%; inhibition of growth at 10 µM [33]: 10%; inhibition of growth at 30 µM [34]: 36%; inhibition of growth at 30 µM [35]: 32%; pIC50 [36]: 4.89

— ChEMBL document CHEMBL2380302, “Synthesis of 3-O-propargylated betulinic acid and its 1,2,3-triazoles as potential apoptotic agents” (Eur J Med Chem, 2013)
